The results in this text go back to US20190375708A1 (VenatoRx Pharmaceuticals, Inc., priority 2018, published 2019).

Data set [1] deals with HBV replication in HepAD38 cells. Kind of data set: Anti-HBV replication assay in HepAD38 cells (QPCR of extracellular HBV DNA). The settings on record: Hepatitis B virus, 168 h, 7 days incubation, extracellular HBV DNA by QPCR, read-out: Anti-HBV EC50. Type of data set: cell-based, HBV (genotype D, serotype ayw). In short, it runs like this: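 Stably transfected HepG2-derived HepAD38 cells express HBV (genotype D, ayw) once tetracycline is withdrawn. Compounds act for 7 days, after which secreted HBV DNA is quantified by QPCR relative to DMSO-treated wells.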

Data set [2] is described as follows: In vitro cytotoxicity assay (MTT cell viability) in HepG2 cells. The format is cell-based, human. The note with it: human. In short, it runs like this:
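HepG2 cells incubated 7 days at 37 °C, 5% CO2 with compounds from 30 μM to 1.0 nM (8 half-log dilutions). Viability read as MTT formazan absorbance at 492 nm, normalised to vehicle controls; CC50 from 4-parameter non-linear regression.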

A value given as a limit tells only on which side of the number the result lay.

For the compound `Cc1cc(NC(=O)c2c(C)c(C(=O)C(=O)N[C@H]3CCc4nc(N)sc4C3)n(C)c2C)ccc1F` [Example 75, (S)-5-(2-((2-amino-4,5,6,7-tetrahydrobenzo[d]thiazol-6-yl)amino)-2-oxoacetyl)-N-(4-fluoro-3-methylphenyl)-1,2,4-trimethyl-1H-pyrrole-3-carboxamide], the EC50 in data set [1] is less than 0.05 µM. The CC50 at 7 days in data set [2] was in the range of 5 to 30 µM.
In the same order, the values of `Cc1cc(NC(=O)c2c(C)c(C(=O)C(=O)NC3(C)CCN(c4ccncn4)CC3)n(C)c2C)ccc1F` [Example 717] are less than 0.05 µM and 5 to 30 µM.
Turning to `Cc1cc(Cl)cc(NC(=O)c2c(C)c(C(=O)C(=O)N[C@H](C)C(F)(F)F)n(C)c2C)c1` [Example 686, (R)-N-(3-chloro-5-methylphenyl)-1,2,4-trimethyl-5-(2-oxo-2-((1,1,1-trifluoropropan-2-yl)amino)acetyl)-1H-pyrrole-3-carboxamide], in data set [1], the EC50 is less than 0.05 µM. This compound also came in with a CC50 at 7 days in data set [2] of 0.5 to 4.99 µM.
Turning to `Cc1c(C(=O)Nc2ccc(F)c(Cl)c2)c(C)n(C)c1C(=O)C(=O)N[C@]1(C)CC[C@@H](O)CC1` [Example 333, N-(3-chloro-4-fluorophenyl)-5-(2-(((1r,4r)-4-hydroxy-1-methylcyclohexyl)amino)-2-oxoacetyl)-1,2,4-trimethyl-1H-pyrrole-3-carboxamide], the concentration giving a half-maximal response (EC50) in data set [1] is less than 0.05 µM. Moreover, the CC50 at 7 days in data set [2] was more than 30 µM.
In the same order, the values of `Cc1cc(NC(=O)c2c(C)c(C(=O)C(=O)NC(C)(C)C)n(CCO)c2C)ccc1F` [Example 71, 5-(2-(tert-butylamino)-2-oxoacetyl)-N-(4-fluoro-3-methylphenyl)-1-(2-hydroxyethyl)-2,4-dimethyl-1H-pyrrole-3-carboxamide] are more than 1 µM and more than 30 µM.
In the same order, the values of `Cc1cnc(C(NC(=O)C(=O)c2c(C)c(C(=O)Nc3ccc(F)c(C)c3)c(C)n2C)C2CC2)s1` (centres unmarked) [Example 83, 5-(2-((cyclopropyl(5-methylthiazol-2-yl)methyl)amino)-2-oxoacetyl)-N-(4-fluoro-3-methylphenyl)-1,2,4-trimethyl-1H-pyrrole-3-carboxamide] are less than 0.05 µM and 5 to 30 µM.
Take `Cc1c(C(=O)Nc2cncc(Cl)c2)c(C)n(C)c1C(=O)C(=O)N[C@H]1CC[C@@H](O)CC1` [Example 726, N-(5-chloropyridin-3-yl)-5-(2-(((1s,4s)-4-hydroxycyclohexyl)amino)-2-oxoacetyl)-1,2,4-trimethyl-1H-pyrrole-3-carboxamide]: the concentration for a half-maximal effect (EC50) in data set [1] was less than 0.05 µM. The same compound showed a CC50 at 7 days in data set [2] of more than 30 µM.
In the case of `Cc1cc(NC(=O)c2c(C)c(C(=O)C(=O)Nc3cc(F)[nH]c(=O)c3)n(C)c2C)ccc1F` [Example 674, 5-(2-((6-fluoro-2-oxo-1,2-dihydropyridin-4-yl)amino)-2-oxoacetyl)-N-(4-fluoro-3-methylphenyl)-1,2,4-trimethyl-1H-pyrrole-3-carboxamide], in data set [1], the EC50 lay within 0.05 to 0.499 µM. In data set [2], this compound gave a CC50 at 7 days of 5 to 30 µM.
In the same order, the values of `Cc1cc(NC(=O)c2c(Cl)c(C(=O)C(=O)NCC(C)(C)O)n3c2CCCC3)cnc1F` [Example 529, 2-chloro-N-(6-fluoro-5-methylpyridin-3-yl)-3-(2-((2-hydroxy-2-methylpropyl)amino)-2-oxoacetyl)-5,6,7,8-tetrahydroindolizine-1-carboxamide] are more than 1 µM and more than 30 µM.
In the same order, the values of `Cc1c(C(=O)Nc2cc(F)c(F)c(F)c2)c(Cl)c(C(=O)C(=O)NC(C)(C)C)n1C` [Example 369, 5-(2-(tert-butylamino)-2-oxoacetyl)-4-chloro-1,2-dimethyl-N-(3,4,5-trifluorophenyl)-1H-pyrrole-3-carboxamide] are less than 0.05 µM and more than 30 µM.
Consider `Cc1noc(C2(NC(=O)C(=O)c3c(C)c(C(=O)Nc4ccc(F)c(C)c4)c(C)n3CCF)CC2)n1` [Example 203, N-(4-fluoro-3-methylphenyl)-1-(2-fluoroethyl)-2,4-dimethyl-5-(2-((1-(3-methyl-1,2,4-oxadiazol-5-yl)cyclopropyl)amino)-2-oxoacetyl)-1H-pyrrole-3-carboxamide], for which the EC50 in data set [1] is less than 0.05 µM. Also, the cytotoxic concentration (CC50) at 7 days in data set [2] is more than 30 µM.
As for `Cc1c(C(=O)Nc2ccc(F)nc2)c(C)n(C)c1C(=O)C(=O)N[C@H](C)C(F)(F)F` [Example 166, (R)-N-(6-fluoropyridin-3-yl)-1,2,4-trimethyl-5-(2-oxo-2-((1,1,1-trifluoropropan-2-yl)amino)acetyl)-1H-pyrrole-3-carboxamide], the EC50 in data set [1] was less than 0.05 µM. This compound yielded a CC50 at 7 days in data set [2] of more than 30 µM.
`Cc1cc(NC(=O)c2c(C)c(C(=O)C(=O)N[C@H]3CC[C@@H](C#N)CC3)n(C)c2C)ccc1F` [Example 283]: the EC50 in data set [1] is less than 0.05 µM. The same compound had a CC50 at 7 days in data set [2] of 5 to 30 µM.
Regarding `Cc1cc(NC(=O)c2c(C)c(C(=O)C(=O)NC3(C)C(=O)NCC34CC4)n(C)c2C)ccc1F` (centres unmarked) [Example 680, N-(4-fluoro-3-methylphenyl)-1,2,4-trimethyl-5-(2-((7-methyl-6-oxo-5-azaspiro[2.4]heptan-7-yl)amino)-2-oxoacetyl)-1H-pyrrole-3-carboxamide], the EC50 in data set [1] was less than 0.05 µM. This compound also displayed a CC50 at 7 days in data set [2] of more than 30 µM.
`Cc1cc(NC(=O)c2c(C)c(C(=O)C(=O)NC3(C(F)(F)F)CCC3)n(C)c2C)ccc1F` [Example 236, N-(4-fluoro-3-methylphenyl)-1,2,4-trimethyl-5-(2-oxo-2-((1-(trifluoromethyl)cyclobutyl)amino)acetyl)-1H-pyrrole-3-carboxamide]: the EC50 in data set [1] was less than 0.05 µM. Moreover, the CC50 at 7 days in data set [2] lay within 5 to 30 µM.
As for `Cc1cc(NC(=O)c2c(C)c(C(=O)C(=O)NC34CC5CC(C3)C(O)C(C5)C4)n(C)c2C)ccc1F` [Example 59, N-(4-fluoro-3-methylphenyl)-5-(2-(((1s,3R,4s,5S,7s)-4-hydroxyadamantan-1-yl)amino)-2-oxoacetyl)-1,2,4-trimethyl-1H-pyrrole-3-carboxamide], the EC50 in data set [1] is less than 0.05 µM. Besides, the CC50 at 7 days in data set [2] was more than 30 µM.
Take `O=C(NC1(CO)CC(F)(F)C1)C(=O)c1c(Cl)c(C(=O)Nc2ccc(F)c(F)c2)c2n1CCC2` [Example 581, 6-chloro-5-(2-((3,3-difluoro-1-(hydroxymethyl)cyclobutyl)amino)-2-oxoacetyl)-N-(3,4-difluorophenyl)-2,3-dihydro-1H-pyrrolizine-7-carboxamide]: the EC50 in data set [1] is less than 0.05 µM. Moreover, in data set [2], the CC50 at 7 days fell in the range of 5 to 30 µM.
As to `Cc1cc(NC(=O)c2c(C)c(C(=O)C(=O)NC3(C)CCN(S(C)(=O)=O)CC3)n(C)c2C)ccc1F` [Example 613, N-(4-fluoro-3-methylphenyl)-1,2,4-trimethyl-5-(2-((4-methyl-1-(methylsulfonyl)piperidin-4-yl)amino)-2-oxoacetyl)-1H-pyrrole-3-carboxamide], the EC50 in data set [1] was less than 0.05 µM. The compound further displayed a CC50 at 7 days in data set [2] of more than 30 µM.
In the same order, the values of `Cc1cc(NC(=O)c2c(C)c(C(=O)C(=O)NCCn3ccnc3)n(C)c2C)ccc1F` [Example 346, 5-(2-((2-(1H-imidazol-1-yl)ethyl)amino)-2-oxoacetyl)-N-(4-fluoro-3-methylphenyl)-1,2,4-trimethyl-1H-pyrrole-3-carboxamide] are less than 0.05 µM and more than 30 µM.
